How the values were obtained:
Experiment in all cases: Test Example 1: foliar application pot test, visual growth control rating
Type in all cases: in vivo
cotton (Gossypium) = settings: wettable powder, observed 20 to 31 days after application
From the text: 1/1,500 are [are (a) = 100 m²] pots were filled with upland farming soil, which in the pots was then sown with a variety of plants. The plants grown will be enumerated below.
When each plant reached a given growth stage (a 1.2- to 3.0-leaf stage for rice, primary leaf to a 0.7-leaf stage for soybean, 2.1- to 3.6-leaf stage for corn, cotyledon to 0.7-leaf stage for cotton, 2.0- to 3.0-leaf stage for wheat, 0.3- to 3.4-leaf stage for cocklebur, 0.3- to 1.6-leaf stage for morning glory, 0.1- to 1.3-leaf stage for prickly sida, 0.1- to 1.3-leaf stage for slender amaranth, 1.5- to 3.2-leaf stage for barnyard glass, and 1.2- to 3.0-leaf stage for large crabgrass), a predetermined amount of the herbicide of the present invention in the form of a wettable powder, weighed out, diluted with 5 ℓ/a of water and admixed with 0.2 or 0.1 vol%, based on the resulting composition, of an agricultural spreader, was foliarly applied to the plant with a small spray gun. The progress of growth of the plant was visually observed 20 to 31 days after the foliar application to evaluate the degree of growth control according to 10 ratings (1: the same as in an untreated plot - 10: perfect growth control).

corn (Zea mays) = tested on: corn (Zea mays); parameters: key: 1: the same as in an untreated plot; 10: perfect growth control; settings: wettable powder, observed 20 to 31 days after application
[1] = tested on: barnyard grass (Echinochloa crus-galli); parameters: key: 1: the same as in an untreated plot; 10: perfect growth control; settings: wettable powder, observed 20 to 31 days after application
Outline: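 Barnyard grass was grown in upland farming soil in 1/1,500 are pots. Plants at the 1.5- to 3.2-leaf stage received a foliar spray of the wettable powder formulation, diluted with 5 ℓ/a water containing 0.2 or 0.1 vol% spreader. After 20 to 31 days, plants were compared visually with untreated ones and rated from 1 (no effect) to 10 (complete control).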

[2] = tested on: cocklebur (Xanthium strumarium); parameters: key: 1: the same as in an untreated plot; 10: perfect growth control; settings: wettable powder, observed 20 to 31 days after application
Outline: (§1)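 Foliar spray, small spray gun; WP in water at 5 ℓ/a + spreader 0.2 or 0.1 vol%. Stages: morning glory 0.3–1.6 leaf, large crabgrass 1.2–3.0, cotton cotyledon–0.7, cocklebur 0.3–3.4. Visual rating d20–31, 1 (as untreated) to 10 (complete).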

[3] = tested on: morning glory (Ipomoea purpurea); parameters: key: 1: the same as in an untreated plot; 10: perfect growth control; settings: wettable powder, observed 20 to 31 days after application
Outline: as §1

[4] = tested on: large crabgrass (Digitaria adscendens); parameters: key: 1: the same as in an untreated plot; 10: perfect growth control; settings: 1.25 g/a active ingredient, wettable powder, observed 20 to 31 days after application
Outline: as §1

[5] = tested on: slender amaranth (Amaranthus viridis); parameters: key: 1: the same as in an untreated plot; 10: perfect growth control; settings: 1.25 g/a active ingredient, wettable powder, observed 20 to 31 days after application
[6] = tested on: prickly sida (Sida spinosa); parameters: key: 1: the same as in an untreated plot; 10: perfect growth control; settings: 1.25 g/a active ingredient, wettable powder, observed 20 to 31 days after application
soybean (Glycine max) = tested on: soybean (Glycine max); parameters: key: 1: the same as in an untreated plot; 10: perfect growth control; settings: 1.25 g/a active ingredient, wettable powder, observed 20 to 31 days after application
rice (Oryza sativa) = tested on: rice (Oryza sativa); parameters: key: 1: the same as in an untreated plot; 10: perfect growth control; settings: 1.25 g/a active ingredient, wettable powder, observed 20 to 31 days after application

Structure (SMILES) | degree of growth control, GO (cotton (Gossypium); 0.31 g/a active ingredient) | degree of growth control, GO (cotton (Gossypium); 1.25 g/a active ingredient) | degree of growth control, ZE (corn (Zea mays); 0.31 g/a active ingredient) | degree of growth control, ZE (corn (Zea mays); 1.25 g/a active ingredient) | degree of growth control, EC ([1]; 0.31 g/a active ingredient) | degree of growth control, EC ([1]; 1.25 g/a active ingredient) | degree of growth control, XA ([2]; 0.31 g/a active ingredient) | degree of growth control, XA ([2]; 1.25 g/a active ingredient) | degree of growth control, IP ([3]; 0.31 g/a active ingredient) | degree of growth control, IP ([3]; 1.25 g/a active ingredient) | degree of growth control, DI [4] | degree of growth control, AM [5] | degree of growth control, SI [6] | degree of growth control, GL (soybean (Glycine max)) | degree of growth control, OR (rice (Oryza sativa))
CCC(Cl)S(=O)(=O)N(CC)c1cccc(S(=O)(=O)NC(=O)Nc2nc(C)nc(OC)n2)n1 (racemic) [compound 88] | 6 | 6 | 10 | 10 | 10 | 10 | 10 | 10 | 10 | 10 |  |  |  |  | 
CCN(c1cccc(S(=O)(=O)NC(=O)Nc2nc(C)nc(OC)n2)n1)S(=O)(=O)CC(F)(F)F [compound 79] |  | 6 |  | 1 |  | 1 |  | 6 |  | 7 | 3 | 6 | 3 | 6 | 1

Source: patent publication EP0562731A1, “Substituted pyridinesulfonamide compounds or their salts, process for preparing the same, and herbicides containing the same” (ISHIHARA SANGYO KAISHA, Ltd., priority 1992, dated 1993)
